For nine compounds, TGI results are on record in PubChem BioAssay (NCI).

Among the test systems are SW-620 colon; SK-MEL-5 melanoma; LOX IMVI melanoma; SNB-19 CNS; HCT-15 colon; MDA-N; SK-OV-3 ovarian; NCI/ADR-RES ovarian; MOLT-4 leukemia; MDA-MB-231 breast; NCI-H522 lung; HS 578T breast; UACC-62 melanoma; SF-295 CNS; OVCAR-8 ovarian.
What all share (test): DTP human tumour cell line panel, 48 h

Structures are written as SMILES.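 Values below derive from 48-hour exposures of cells grown in 96-well plates, with endpoints linearly interpolated between the two concentrations bracketing the appropriate inhibition level. Definition used: TGI = concentration required for complete inhibition of growth.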

By TGI is commonly meant the concentration at which net growth stops. Lower therefore signals greater sensitivity of the cells. `O=[N+]([O-])c1cc(Br)cc2cc(Cl)cnc12`: the concentration for total growth inhibition (TGI) in the assay on SW-620 colon was 32.8 µM; in the assay on SK-MEL-5 melanoma, > 100 µM; in the assay on LOX IMVI melanoma, > 100 µM; with SNB-19 CNS, > 100 µM; in the assay on HCT-15 colon, > 100 µM; with MDA-N, > 100 µM. In addition, the concentration for total growth inhibition (TGI) in the assay on SK-OV-3 ovarian, with NCI/ADR-RES ovarian, in the assay with MOLT-4 leukemia, in the assay on MDA-MB-231 breast, with NCI-H522 lung and in the assay with HS 578T breast was > 100 µM each time. In addition, the concentration for total growth inhibition (TGI) in the assay with UACC-62 melanoma, in the assay on SF-295 CNS and in the assay on OVCAR-8 ovarian was > 100 µM in each case.

With `O=c1oc2ccc([N+](=O)[O-])cc2nc1/C=C(\O)c1ccccc1`, the total growth inhibition concentration (TGI) in the assay with SW-620 colon, in the assay on SK-MEL-5 melanoma, in the assay with LOX IMVI melanoma, in the assay with SNB-19 CNS, in the assay with HCT-15 colon and in the assay on MDA-N was > 100 µM each time. The TGI in the assay on SK-OV-3 ovarian, in the assay on NCI/ADR-RES ovarian, with MOLT-4 leukemia, with MDA-MB-231 breast, in the assay on NCI-H522 lung and in the assay on HS 578T breast was > 100 µM throughout. For the same compound, the TGI in the assay with UACC-62 melanoma, in the assay with SF-295 CNS and in the assay with OVCAR-8 ovarian was > 100 µM in each case.

With `CC(C)C[S+]1C2=C([O-])CC(C)(C)CC2=Nc2ccccc21` (stereo not given), the TGI with SW-620 colon, in the assay with SK-MEL-5 melanoma, with LOX IMVI melanoma, in the assay with SNB-19 CNS, in the assay with HCT-15 colon and in the assay on MDA-N was > 100 µM throughout. Besides, the total growth inhibition concentration (TGI) in the assay with SK-OV-3 ovarian, in the assay with NCI/ADR-RES ovarian, in the assay on MOLT-4 leukemia, in the assay with MDA-MB-231 breast, in the assay with NCI-H522 lung and in the assay with HS 578T breast was > 100 µM in each case. Further, the TGI with UACC-62 melanoma, in the assay on SF-295 CNS and in the assay with OVCAR-8 ovarian was > 100 µM throughout.

Regarding `COc1ccc(-c2nc(-c3ccc(OC)cc3)n(-c3ccccc3)n2)cc1`, the TGI in the assay on SW-620 colon, in the assay with SK-MEL-5 melanoma, with LOX IMVI melanoma, in the assay with SNB-19 CNS, in the assay with HCT-15 colon and in the assay on MDA-N was > 100 µM each time. Besides, the TGI in the assay on SK-OV-3 ovarian was > 100 µM; with NCI/ADR-RES ovarian, > 100 µM; in the assay on MOLT-4 leukemia, > 100 µM; with MDA-MB-231 breast it was > 100 µM; in the assay with NCI-H522 lung, 62.5 µM; in the assay with HS 578T breast it was > 100 µM. In addition, the TGI with UACC-62 melanoma, in the assay on SF-295 CNS and with OVCAR-8 ovarian was > 100 µM in each case.

For the compound `O=C(O)c1cc(N=Nc2ccc([N+](=O)[O-])cc2)ccc1O`, the TGI in the assay with SW-620 colon, in the assay on SK-MEL-5 melanoma, with LOX IMVI melanoma, in the assay with SNB-19 CNS, in the assay with HCT-15 colon and with MDA-N was > 100 µM each time. Further, the TGI is > 100 µM in the assay with SK-OV-3 ovarian; > 100 µM with NCI/ADR-RES ovarian; 77 µM with MOLT-4 leukemia; > 100 µM in the assay on MDA-MB-231 breast; > 100 µM in the assay with NCI-H522 lung; > 100 µM in the assay with HS 578T breast. Also, the results for the TGI in the assay with UACC-62 melanoma, in the assay on SF-295 CNS and in the assay with OVCAR-8 ovarian were > 100 µM, 83.7 µM and > 100 µM, respectively.

With `Cc1sc2c(c1C)C(=O)c1cccn1-2`, the TGI with SW-620 colon, in the assay with SK-MEL-5 melanoma, with LOX IMVI melanoma, in the assay on SNB-19 CNS, in the assay on HCT-15 colon and in the assay with MDA-N was > 100 µM throughout. Besides, the TGI in the assay on SK-OV-3 ovarian, in the assay with NCI/ADR-RES ovarian, with MOLT-4 leukemia, with MDA-MB-231 breast, with NCI-H522 lung and in the assay with HS 578T breast was > 100 µM throughout. The TGI with UACC-62 melanoma, in the assay on SF-295 CNS and in the assay with OVCAR-8 ovarian was > 100 µM each time.

With `CCCNC1=C2C[C@@H](C)C[C@@H](OC)[C@@H](OC(=O)CCCN)[C@H](C)/C=C(\C)[C@@H](OC(N)=O)[C@H](OC)/C=C\C=C(/C)C(=O)NC(=CC1=O)C2=O`, the TGI with SW-620 colon was > 43.8 µM; with SK-MEL-5 melanoma, 24.5 µM; in the assay on LOX IMVI melanoma, > 48.3 µM; in the assay with SNB-19 CNS, 29.7 µM; in the assay on HCT-15 colon, 46.8 µM; in the assay on MDA-N it was 30.1 µM. Further, the concentration for total growth inhibition (TGI) amounted to 32.4 µM with SK-OV-3 ovarian; 86.2 µM in the assay on NCI/ADR-RES ovarian; 19.2 µM in the assay with MOLT-4 leukemia; 36.7 µM in the assay on MDA-MB-231 breast; 19.1 µM in the assay with NCI-H522 lung; 60.9 µM in the assay on HS 578T breast. In addition, the TGI with UACC-62 melanoma was 29.4 µM; in the assay with SF-295 CNS, 36.8 µM; with OVCAR-8 ovarian, 43.7 µM.

On to `Clc1ccc(Nc2ncco2)cc1Cl`, for which the TGI with SW-620 colon, with SK-MEL-5 melanoma, with LOX IMVI melanoma, with SNB-19 CNS, in the assay on HCT-15 colon and in the assay with MDA-N was > 10 µM in each case. Also, the TGI in the assay on SK-OV-3 ovarian, with NCI/ADR-RES ovarian, with MOLT-4 leukemia, in the assay on MDA-MB-231 breast, in the assay on NCI-H522 lung and in the assay on HS 578T breast was > 10 µM each time. Besides, the TGI in the assay on UACC-62 melanoma, in the assay with SF-295 CNS and in the assay with OVCAR-8 ovarian was > 10 µM in each case.

For `c1ccc(-c2cnc(SC(c3ccccc3)c3ccccc3)[nH]2)cc1`, the TGI in the assay on SW-620 colon is > 100 µM; in the assay with SK-MEL-5 melanoma it was 27 µM; in the assay on LOX IMVI melanoma it was 59 µM; in the assay on SNB-19 CNS it was > 100 µM; in the assay on HCT-15 colon, 38.8 µM; with MDA-N, 69.6 µM. The TGI is > 100 µM in the assay with SK-OV-3 ovarian; 85.4 µM in the assay with NCI/ADR-RES ovarian; > 100 µM in the assay with MOLT-4 leukemia; > 100 µM with MDA-MB-231 breast; 54.6 µM in the assay with NCI-H522 lung; > 100 µM in the assay on HS 578T breast. Moreover, the results for the TGI in the assay on UACC-62 melanoma, in the assay on SF-295 CNS and in the assay on OVCAR-8 ovarian were 42.1 µM, > 100 µM and > 100 µM, respectively.
